Measurements as given in patent US8906925B2, “Pyrido[4,3-B]indoles containing rigid moieties” (Medivation Technologies, Inc., priority 2008, dated 2014).
Read-outs that look alike come from different tables or passages of the source.

What was measured:
[1] = biological target: T1, human dopamine D2L receptor (Homo sapiens, UniProt P14416); assay: GTPγS functional assay, dopamine D2L (CHO-K1 membrane extracts); type: biochemical; design: host or cells: CHO-K1 co-expressing mitochondrial apoaequorin and Gα16; settings: for inhibition at 0.005 µM: antagonist concentration 5 nM; for inhibition at 0.05 µM: antagonist concentration 50 nM; for inhibition at 0.5 µM: antagonist concentration 500 nM; for inhibition at 5 µM: antagonist concentration 5000 nM; for inhibition at 15 µM: antagonist concentration 15000 nM
T1 sequence (P14416 whole entry): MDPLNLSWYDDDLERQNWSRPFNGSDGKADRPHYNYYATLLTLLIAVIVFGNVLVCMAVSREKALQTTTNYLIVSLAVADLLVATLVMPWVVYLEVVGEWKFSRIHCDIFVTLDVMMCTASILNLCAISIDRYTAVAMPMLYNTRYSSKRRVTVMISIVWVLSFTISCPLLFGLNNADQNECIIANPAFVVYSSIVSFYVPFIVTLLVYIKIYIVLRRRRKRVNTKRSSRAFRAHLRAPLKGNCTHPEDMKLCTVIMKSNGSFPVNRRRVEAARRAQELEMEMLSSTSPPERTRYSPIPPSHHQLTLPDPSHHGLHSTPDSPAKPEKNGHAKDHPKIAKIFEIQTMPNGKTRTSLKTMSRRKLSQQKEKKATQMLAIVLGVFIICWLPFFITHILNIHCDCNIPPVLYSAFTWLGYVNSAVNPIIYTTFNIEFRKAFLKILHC
Description: (§1) To study the functional activity of compounds of the invention on the human recombinant dopamine D2L with Aequorin, GTPγS and cAMP functional assays and on the human recombinant serotonin 5-HT2A receptor with Aequorin, CHO-K1 cell lines expressing D2L or 5-HT2A recombinant receptor, mitochondrial apoaequorin and Gα16 were used for the Aequorin assay. CHO-K1 cell line expressing the recombinant D2L receptor was used for the cAMP assay and was amplified to prepare membranes used for the GTPγS assay.
GTPγS Assay Procedure: Assay buffer [20 mM HEPES pH 7.4; 100 mM NaCl, 10 μg/mL saponin, 30 mM MgCl2]; Membranes [Recombinant CHO-K1-D2L membrane extracts thawed on ice and diluted in assay buffer to give 1 mg/mL (10 μg/10 μL) and kept on ice]; GDP [diluted in assay buffer to give […] final concentration]; Beads [PVT-WGA (Amersham, RPNQ0001), diluted in assay buffer at 25 mg/mL (0.25 mg/10 μL)]; GTPγ35S [(PerkinElmer NEG030X), diluted in assay buffer to give 0.1 nM final concentration]; Ligand [Quinpirol (Tocris, 1061) as reference agonist and haloperidol (Tocris, 0931) as reference antagonist, diluted in assay buffer]. Membranes were mixed with GDP (volume:volume) and incubated for at least 15 min on ice. In parallel, GTPγ[^35S] was mixed with the beads (volume:volume) just before starting the reaction. For agonist testing, the following reagents are successively added in the wells of an Optiplate (Perkin Elmer): 50 μL of test or reference ligand, 20 μL of the membranes:GDP mix, 10 μL of assay buffer and 20 μL of the GTPγ[^35S]:beads mix. For antagonist testing, the following reagents were successively added in the wells of an Optiplate (Perkin Elmer): 50 μL of test or reference ligand, 20 μL of the membranes:GDP mix, and then after an incubation of 15 min at room temperature, 10 μL of reference agonist at historical EC80 concentration and 20 μL of the GTPγ[^35S]:beads mix. The plates were covered with a top seal, mixed on an orbital shaker for 2 min, and then incubated for 1 h at room temperature. Then the plates were centrifuged for 10 min at 2000 rpm, incubated at room temperature 1 h and counted for 1 min/well with a Perkin Elmer TopCount reader. Compounds were tested for antagonist activity at the human dopamine D2L receptor (FAST-0101G) at the following nanomolar concentrations, in duplicate: Antagonist (nM): 5, 15, 50, 150, 500, 1500, 5000, 15000.

[2] = biological target: human recombinant serotonin 5-HT2A receptor (Homo sapiens, UniProt P28223); assay: Aequorin functional assay, serotonin 5-HT2A (CHO-K1); type: cell-based; design: host or cells: CHO-K1 cells co-expressing mitochondrial apoaequorin and Gα16
human recombinant serotonin 5-HT2A receptor, sequence (P28223 whole entry): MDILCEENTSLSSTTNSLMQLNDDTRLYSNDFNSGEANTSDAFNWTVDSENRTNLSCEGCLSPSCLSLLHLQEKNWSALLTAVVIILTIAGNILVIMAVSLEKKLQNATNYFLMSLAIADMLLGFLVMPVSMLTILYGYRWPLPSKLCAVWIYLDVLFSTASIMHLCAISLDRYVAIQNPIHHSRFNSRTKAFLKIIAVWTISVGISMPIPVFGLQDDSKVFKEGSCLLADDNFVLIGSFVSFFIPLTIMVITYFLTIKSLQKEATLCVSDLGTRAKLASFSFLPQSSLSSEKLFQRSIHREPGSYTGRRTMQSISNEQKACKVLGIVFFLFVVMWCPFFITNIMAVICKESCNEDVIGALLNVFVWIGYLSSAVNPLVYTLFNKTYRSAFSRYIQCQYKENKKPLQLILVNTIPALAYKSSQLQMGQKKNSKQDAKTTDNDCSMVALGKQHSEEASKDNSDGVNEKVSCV
Description: as §1
(§2) Cells were incubated at room temperature for at least 4 h with Coelenterazine h (Molecular Probes). Dose response curves with reference compounds were performed before testing the compounds of the invention. D2L reference agonist and antagonist were quinpirol (Tocris, 1061) and haloperidol (Tocris, 0931), respectively. […] For agonist testing, 50 μL of cell suspension were injected on 50 μL of test compound or reference agonist plated in a 96-well plate. The resulting emission of light was recorded using the Hamamatsu Functional Drug Screening System 6000 (FDSS 6000). Following an incubation of 15 min after the first injection, 100 μL of reference agonist at a concentration corresponding to its EC80 was injected on the 100 μL of the mixture of cell suspension and test compound, for antagonist testing. The resulting emission of light was recorded using the same luminometer as for agonist testing. To standardize the emission of recorded light (determination of the “100% signal”) across plates and across different experiments, some of the wells contained 100 μM digitonin or a saturating concentration of ATP (20 μM). Plates also contained the reference agonist at a concentration equivalent to the EC100 and EC80 obtained during the test validation.

[3] = biological target: T1, human dopamine D2L receptor; assay: Aequorin functional assay, dopamine D2L (CHO-K1); type: cell-based; design: host or cells: CHO-K1 co-expressing mitochondrial apoaequorin and Gα16; settings: for inhibition at 0.005 µM / inhibition at […] / inhibition at 0.05 µM / inhibition at 0.5 µM / inhibition at 5 µM / inhibition at 15 µM: CHO-K1; for inhibition at 0.005 µM: Antagonist concentration 5 nM; for inhibition at 0.05 µM: Antagonist concentration 50 nM; for inhibition at 0.5 µM: Antagonist concentration 500 nM; for inhibition at 5 µM: Antagonist concentration 5000 nM; for inhibition at 15 µM: Antagonist concentration 15000 nM
Description: as §1, §2

[4] = antagonist concentration 150 nM
[5] = antagonist concentration 1500 nM
[6] = CHO-K1, read-out: 5-HT2A Antagonist % Inhibition (Aequorin)
[7] = Antagonist concentration 150 nM
[8] = Antagonist concentration 1500 nM

Structure (SMILES) | inhibition at 0.005 µM [1] | inhibition at […] ([1]; antagonist concentration 15 nM) | inhibition at 0.05 µM [1] | inhibition at […] [1, 4] | inhibition at 0.5 µM [1] | inhibition at […] [1, 5] | inhibition at 5 µM [1] | inhibition at 15 µM [1] | D2L Agonist % Activation (Aequorin) ([3]; Agonist concentration 10 nM) | D2L Agonist % Activation (Aequorin) ([3]; Agonist concentration 30 nM) | D2L Agonist % Activation (Aequorin) ([3]; Agonist concentration 100 nM) | D2L Agonist % Activation (Aequorin) ([3]; Agonist concentration 300 nM) | D2L Agonist % Activation (Aequorin) ([3]; Agonist concentration 1000 nM) | D2L Agonist % Activation (Aequorin) ([3]; Agonist concentration 3000 nM) | D2L Agonist % Activation (Aequorin) ([3]; Agonist concentration 10000 nM) | D2L Agonist % Activation (Aequorin) ([3]; Agonist concentration 30000 nM) | inhibition at 0.005 µM [3] | inhibition at […] ([3]; Antagonist concentration 15 nM) | inhibition at 0.05 µM [3] | inhibition at […] [3, 7] | also measured
C/C(=C\n1c2c(c3cc(Cl)ccc31)CN(C)CC2)c1ccncc1 [Compound 90, (E)-8-chloro-2,3,4,5-tetrahydro-2-methyl-5-(2-(pyridin-4-yl)prop-1-enyl)-1H-pyrido[4,3-b]indole] | 59% | 101% | 106% | 109% | 109% | 116% | 112% | 116% | 0.95% | 0.25% | −0.23% | −0.24% | −0.48% | −1.20% | −0.78% | −0.92% | 95.5% | 97.3% | 93.5% | 96.8% | 5-HT2A Agonist % Activation (Aequorin) ([2]; Agonist concentration 10 nM): 0.62%; 5-HT2A Agonist % Activation (Aequorin) ([2]; Agonist concentration 30 nM): 0.26%; 5-HT2A Agonist % Activation (Aequorin) ([2]; Agonist concentration 100 nM): 0.27%; 5-HT2A Agonist % Activation (Aequorin) ([2]; Agonist concentration 300 nM): 0.18%; 5-HT2A Agonist % Activation (Aequorin) ([2]; Agonist concentration 1000 nM): 0.11%; 5-HT2A Agonist % Activation (Aequorin) ([2]; Agonist concentration 3000 nM): 0.04%; 5-HT2A Agonist % Activation (Aequorin) ([2]; Agonist concentration 10000 nM): 0.02%; 5-HT2A Agonist % Activation (Aequorin) ([2]; Agonist concentration 30000 nM): 0.49%; inhibition at 0.005 µM [2, 6]: 73%; inhibition at 0.05 µM [2, 6]: 98.5%; inhibition at 0.5 µM [2, 6]: 98.4%; inhibition at 5 µM [2, 6]: 98.5%; inhibition at 15 µM [2, 6]: 97.6%; inhibition at 0.5 µM [3]: 97.9%; inhibition at […] [3, 8]: 97.2%; inhibition at 5 µM [3]: 97.4%; inhibition at 15 µM [3]: 96.1%
C/C(=C\n1c2c(c3cc(Cl)ccc31)CN(C)CC2)c1ccc(F)cc1 [Compound 83, (E)-8-chloro-5-(2-(4-fluorophenyl)prop-1-enyl)-2,3,4,5-tetrahydro-2-methyl-1H-pyrido[4,3-b]indole] | 51.8% | 90% | 104% | 109% | 118% | 113% | 111% | 105% | 2.43% | 0.68% | 1.26% | 0.92% | −0.12% | 0.00% | 6.32% | 84.25% | 93.5% | 96.4% | 96.8% | 96.8% | inhibition at 0.005 µM ([2]; CHO-K1, Antagonist concentration 5 nM, read-out: 5-HT2A Antagonist % Inhibition (Aequorin)): 85.4%; inhibition at […] ([2]; CHO-K1, Antagonist concentration 15 nM): 96.6%; inhibition at 0.05 µM ([2]; CHO-K1, Antagonist concentration 50 nM, read-out: 5-HT2A Antagonist % Inhibition (Aequorin)): 98.5%; inhibition at […] ([2]; CHO-K1, Antagonist concentration 150 nM): 98.7%; inhibition at 0.5 µM ([2]; CHO-K1, Antagonist concentration 500 nM, read-out: 5-HT2A Antagonist % Inhibition (Aequorin)): 98.8%; inhibition at […] ([2]; CHO-K1, Antagonist concentration 1500 nM): 98.9%; inhibition at 5 µM ([2]; CHO-K1, Antagonist concentration 5000 nM, read-out: 5-HT2A Antagonist % Inhibition (Aequorin)): 97.8%; inhibition at 15 µM ([2]; CHO-K1, Antagonist concentration 15000 nM, read-out: 5-HT2A Antagonist % Inhibition (Aequorin)): 97%; inhibition at 0.5 µM [3]: 96.8%; inhibition at […] [3, 8]: 96%; inhibition at 5 µM [3]: 96%; inhibition at 15 µM [3]: 92.3%
